Where two headings read alike, the source gives them in different places.
Assays:
Format in all cases: in vivo, human
[1] = Preliminary pharmacokinetic analyses of neratinib after oral administration; conditions: for AUC / Cmax: oral daily; for AUC: read-out: Mean steady-state AUC; for Cmax: read-out: Mean steady-state Cmax
Text: The mean accumulation ratio was 1.2 after a 240-mg dose, indicating no significant accumulation of neratinib after repeated daily dose administration at the dose to be used in this proposed trial.
The data indicated a slow distribution of neratinib with a large apparent volume of distribution (Vz/F on day 1: about 3188 to 6181 L) after oral absorption. […] There was moderate to large variability in neratinib t1/2, Cmax, and AUC; coefficients of variation (CVs) generally ranged from 8% to 90%.

[2] = system: erbB-2-overexpressing advanced or metastatic breast cancer; test: Ongoing phase 2 study of neratinib 240 mg daily oral, efficacy
Procedure: (§1) In an ongoing phase 2 study, neratinib is being administered as daily oral doses of 240 mg in subjects with erbB-2-overexpressing advanced or metastatic breast cancer, who received up to 4 prior cytotoxic chemotherapy treatment regimens, with prior trastuzumab therapy for metastatic or locally advanced disease (≧6 weeks) or with no prior exposure to erbB-2-targeted treatment. Preliminary results were obtained for 124 subjects evaluable for efficacy based on independent assessment and 131 subjects evaluable per investigator assessment. […] Median Progression Free Survival (PFS) for independent (and investigator) assessment was 23 (22), with a 16-week PFS rate of 61% (57%) in subjects who had received prior trastuzumab. For trastuzumab naïve subjects, PFS per independent (and investigator) assessment was 40 (35), with a 16-week PFS rate of 75% (78%).

[3] = Ongoing phase 2 study of neratinib 240 mg daily oral, adverse events
Procedure: as §1
The predominant AE was diarrhea, which was reversible and generally manageable by medication, temporary discontinuation of treatment, or dose reduction. Diarrhea that was considered related to neratinib occurred with a frequency of 94% of the subjects. Of those, grade 3-4 diarrhea was experienced by 25% of the subjects. Other common AEs were nausea (related to neratinib in 30%, grade 3-4 in 2% of the subjects), vomiting (related in 23%, grade 3-4 in 2%), fatigue (related in 20%, grade 3-4 in <2%), and anorexia (related in 16%, grade 3-4 in 4%). […] Presented at the Poster presented at the SABCS, San Antonio, USA].

[4] = human, in vivo, 400 mg (highest dose)
[5] = human, in vivo, 180-mg dose group
[6] = human, in vivo, 240-mg dose group
[7] = human, in vivo, 320-mg dose group
[8] = prior trastuzumab, independent assessment
[9] = prior trastuzumab, investigator assessment
[10] = trastuzumab naïve subjects, independent assessment
[11] = trastuzumab naïve subjects, investigator assessment

## CCOc1cc2ncc(C#N)c(Nc3ccc(OCc4ccccn4)c(Cl)c3)c2cc1NC(=O)/C=C/CN(C)C [neratinib, (2E)-N-[4-[[3-chloro-4-[(pyridin-2-yl)methoxy]phenyl]amino]-3-cyano-7-ethoxyquinolin-6-yl]-4-(dimethylamino)but-2-enamide]
[1]; after a 240-mg dose, repeated daily administration
  mean accumulation ratio: 1.2
[1]; after oral administration
  dose dependence of Cmax and AUC: increased in a dose-dependent manner
[1]; [4]
  AUC: 1700 ng·h/mL
  Cmax: 105 ng/mL
[1]; [5]
  AUC: 975 ng·h/mL
  Cmax: 70.1 ng/mL
[1]; [6]
  AUC: 939 ng·h/mL
  Cmax: 73.5 ng/mL
[1]; [7]
  AUC: 1330 ng·h/mL
  Cmax: 90.4 ng/mL
[1]; human, in vivo, day 1, after oral absorption, read-out: apparent volume of distribution (Vz/F)
  Vd/F: 3190 to 6180 L
[1]; human, in vivo, oral administration, day 1, read-out: mean apparent terminal half-life (t1/2)
  half-life: 13 to 17 h
[1]; oral
  absorption: relatively slow
[2]; [8]
  16-week PFS rate: 61%
  Median Progression Free Survival (PFS): 23
[2]; [9]
  16-week PFS rate: 57%
  Median Progression Free Survival (PFS): 22
[2]; subjects with erbB-2-positive advanced breast cancer, 240 mg daily oral
  antitumor activity: significant antitumor activity
[2]; subjects with prior trastuzumab containing therapy in the metastatic setting, independently assessed, 240 mg daily oral
  ORR: 26%
[2]; subjects with prior trastuzumab containing therapy in the metastatic setting, investigator assessed, 240 mg daily oral
  ORR: 35%
[2]; [10]
  16-week PFS rate: 75%
  PFS: 40
[2]; trastuzumab naïve subjects, independently assessed, 240 mg daily oral
  ORR: 51%
[2]; trastuzumab naïve subjects, investigator assessed, 240 mg daily oral
  ORR: 62%
[2]; [11]
  16-week PFS rate: 78%
  PFS: 35
[3]; 240 mg daily oral
  Diarrhea considered related to neratinib, frequency of subjects: 94%
  anorexia grade 3-4, subjects: 4%
  anorexia related, subjects: 16%
  fatigue grade 3-4, subjects: < 2%
  fatigue related, subjects: 20%
  grade 3-4 diarrhea, subjects: 25%
  nausea grade 3-4, subjects: 2%
  nausea related to neratinib, subjects: 30%
  vomiting grade 3-4, subjects: 2%
  vomiting related, subjects: 23%
[3]; daily oral doses of 240 mg
  tolerability: generally well tolerated

From patent publication US9265784B2, “Antineoplastic combinations of 4-anilino-3-cyanoquinolines and capecitabine” (WYETH LLC, priority 2008, dated 2016)
